# From paper PMC9958325 (Nature Communications, 2023)
# “And” between values parts separate entries of the source, which are not always exact repeats. Equal values may be shown once. Read-outs that look alike come from different tables or passages of the source.
# Columns and labels:
# [1] = Pharmacokinetic study in PXB-mice (human liver-chimeric)
# SARS-CoV-2^WK-521 = assay: microbe, parasite or virus in culture; type: cell-based; design: EC95, individual assays / EC95, Average: unit: µM
# human calpain = target: T1, human calpain (Homo sapiens, UniProt P07384); assay: Human calpain activity assay; type: biochemical; conditions: for %inhibition against humanCalpain: triplicate
# T1 sequence (P07384 2-714): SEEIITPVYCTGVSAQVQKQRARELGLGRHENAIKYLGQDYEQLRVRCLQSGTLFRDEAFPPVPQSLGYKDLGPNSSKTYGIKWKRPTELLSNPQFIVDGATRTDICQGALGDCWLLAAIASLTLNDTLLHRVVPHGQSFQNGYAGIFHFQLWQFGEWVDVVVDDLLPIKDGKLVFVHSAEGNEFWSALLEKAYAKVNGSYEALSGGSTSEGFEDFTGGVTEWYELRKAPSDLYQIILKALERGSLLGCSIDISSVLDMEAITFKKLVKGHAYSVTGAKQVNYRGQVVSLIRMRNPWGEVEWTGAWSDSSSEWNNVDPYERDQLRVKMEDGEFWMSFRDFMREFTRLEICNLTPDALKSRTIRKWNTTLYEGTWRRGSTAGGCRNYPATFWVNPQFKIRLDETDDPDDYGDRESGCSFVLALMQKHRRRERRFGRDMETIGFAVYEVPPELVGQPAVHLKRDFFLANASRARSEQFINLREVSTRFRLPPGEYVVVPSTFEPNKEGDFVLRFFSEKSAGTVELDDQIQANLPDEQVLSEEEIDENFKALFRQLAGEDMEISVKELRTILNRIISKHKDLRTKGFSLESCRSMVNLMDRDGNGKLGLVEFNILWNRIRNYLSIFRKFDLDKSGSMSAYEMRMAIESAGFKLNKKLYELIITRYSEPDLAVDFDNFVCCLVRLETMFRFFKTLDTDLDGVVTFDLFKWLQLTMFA
# T1 sequence (P04632 1-268 partner): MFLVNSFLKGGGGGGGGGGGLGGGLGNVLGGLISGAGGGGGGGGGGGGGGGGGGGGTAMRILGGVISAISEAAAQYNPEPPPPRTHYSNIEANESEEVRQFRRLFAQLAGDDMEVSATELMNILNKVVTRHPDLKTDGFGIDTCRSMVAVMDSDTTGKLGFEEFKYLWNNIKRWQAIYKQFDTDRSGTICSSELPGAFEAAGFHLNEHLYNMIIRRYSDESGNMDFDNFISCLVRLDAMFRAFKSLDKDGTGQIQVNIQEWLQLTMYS
# HeLa-ACE2-TMPRSS2 cells = assay: Intracellular concentrations of compounds (LC/MS), HeLa-ACE2-TMPRSS2 cells; conditions: 6 h; for Intracellular amount, individual: listed as TKB-0245
smiles,measurement,setting,value
CC(C)(C)[C@H](NC(=O)C(F)(F)F)C(=O)N1C[C@H]2[C@@H]([C@H]1C(=O)N[C@@H](C[C@@H]1CCNC1=O)C(=O)c1nc3c(F)cccc3s1)C2(C)C [TKB245],Plasma concentration,"[1]; PXB-mice, p.o. 10 mg/kg, 240 min, individual mice, listed as TKB0245, 10 mg/kg",152.9 ng/mL and 98.8 ng/mL and 128.8 ng/mL
same,Plasma concentration,"[1]; PXB-mice, p.o. 10 mg/kg, 4 hr, individual mice, listed as TKB0245, 10 mg/kg",150 ng/mL and 100 ng/mL and 130 ng/mL
same,Plasma concentration,"[1]; PXB-mice, p.o. 10 mg/kg, 480 min, individual mice, listed as TKB0245, 10 mg/kg",41.6 ng/mL and 34.4 ng/mL and 32.8 ng/mL
same,Plasma concentration,"[1]; PXB-mice, p.o. 10 mg/kg, 8 hr, individual mice, listed as TKB0245, 10 mg/kg",0.04 µg/ml and 0.03 µg/ml (2×)
same,Plasma concentration,"[1]; PXB-mice, p.o. 10 mg/kg, 1440 min, individual mice, listed as TKB0245, 10 mg/kg",26 ng/mL and 21.9 ng/mL and 27.9 ng/mL
same,Plasma concentration,"[1]; PXB-mice, p.o. 10 mg/kg, 24 hr, individual mice, listed as TKB0245, 10 mg/kg",0.03 µg/ml (2×) and 0.02 µg/ml
same,Plasma concentration,"[1]; i.v., 10 min, individual animals (3 per time point), LC/MS/MS, listed as TKB0245",8436.54 ng/mL and 8433.45 ng/mL and 10625.21 ng/mL
same,Plasma concentration,"[1]; i.v., 60 min, individual animals (3 per time point), LC/MS/MS, listed as TKB0245",2816.02 ng/mL and 2507.33 ng/mL and 3228.12 ng/mL
same,Plasma concentration,"[1]; i.v., 240 min, individual animals (3 per time point), LC/MS/MS, listed as TKB0245",47.02 ng/mL and 52.34 ng/mL and 93.04 ng/mL
same,Plasma concentration,"[1]; i.v., 480 min, individual animals (3 per time point), LC/MS/MS, listed as TKB0245",10.40 ng/mL and 14.76 ng/mL and 18.04 ng/mL
same,Plasma concentration,"[1]; i.v., 1440 min, individual animals (3 per time point), LC/MS/MS, listed as TKB0245",13.63 ng/mL and 11.63 ng/mL and 10.43 ng/mL
same,Oral F,"[1]; male PXB-mouse 10 mg/kg i.v. and p.o., dose-normalized AUC ratio, 10 mg/kg",47.7% and 48% and 48¶ %
same,Plasma concentration,"[1]; p.o., 10 min, individual animals (3 per time point), LC/MS/MS, listed as TKB0245",914.50 ng/mL and 1553.11 ng/mL and 2872.30 ng/mL
same,Plasma concentration,"[1]; p.o., 60 min, individual animals (3 per time point), LC/MS/MS, listed as TKB0245",1278.12 ng/mL and 1343.67 ng/mL and 1794.27 ng/mL
same,Plasma concentration,"[1]; p.o., 240 min, individual animals (3 per time point), LC/MS/MS, listed as TKB0245",152.94 ng/mL and 98.79 ng/mL and 128.84 ng/mL
same,Plasma concentration,"[1]; p.o., 480 min, individual animals (3 per time point), LC/MS/MS, listed as TKB0245",41.61 ng/mL and 34.39 ng/mL and 32.81 ng/mL
same,Plasma concentration,"[1]; p.o., 1440 min, individual animals (3 per time point), LC/MS/MS, listed as TKB0245",25.98 ng/mL and 21.91 ng/mL and 27.88 ng/mL
same,"EC95, Average",SARS-CoV-2^WK-521,0.53
same,"EC95, individual assays",SARS-CoV-2^WK-521,0.59 and 0.09 and 0.55 and 0.89
same,SARS-CoV2 RNA VeroE6 cell-based assay EC95,SARS-CoV-2^WK-521,530 nM and 530 ± 330 nM
same,EC50,"SARS-CoV-2^WK-521; read-out: EC50, Average",31.2 nM
same,EC50,"SARS-CoV-2^WK-521; read-out: EC50, VeroE6 + 2 µM CP100356",1 ± 1 nM
same,EC50,"SARS-CoV-2^WK-521; read-out: EC50, VeroE6 with CP100356, Average",1.56 nM
same,EC50,"SARS-CoV-2^WK-521; read-out: EC50, VeroE6 with CP100356, individual assays",1.4 nM and 2.37 nM and 0.9 nM
same,EC50,"SARS-CoV-2^WK-521; read-out: EC50, individual assays",40 nM and 20 nM and 50 nM and 15 nM
same,EC50,SARS-CoV-2^WK-521; read-out: SARS-CoV2 RNA VeroE6 cell-based assay EC50,30 ± 20 nM
same,Effect on human calpain (in words),human calpain,"neither of human cysteine enzymes, cathepsin L and calpain, were significantly affected"
same,%inhibition against humanCalpain,human calpain; 0.000128 µM,0%
same,%inhibition against humanCalpain,human calpain; 0.00064 µM,0%
same,%inhibition against humanCalpain,human calpain; 0.0032 µM,0%
same,%inhibition against humanCalpain,human calpain; 0.08 µM,0%
same,%inhibition against humanCalpain,human calpain; 0.4 µM,0%
same,%inhibition against humanCalpain,human calpain; 2 µM,9.6344% and 1.813%
same,IC50,"human calpain; 60 minute incubation, mean ± 1 S.D., n=3, read-out: IC50, human calpains",> 2000 nM
same,"Intracellular amount, avg","HeLa-ACE2-TMPRSS2 cells; Hela ACE2 TMPRSS2, 10uM",0.603 pmol(total)
same,"Intracellular amount, individual","HeLa-ACE2-TMPRSS2 cells; Hela ACE2 TMPRSS2, 10uM",0.6360 pmol(total) and 0.5701 pmol(total)
same,"Intracellular amount, avg","HeLa-ACE2-TMPRSS2 cells; Hela ACE2 TMPRSS2, 50uM",4.167 pmol(total)
same,"Intracellular amount, individual","HeLa-ACE2-TMPRSS2 cells; Hela ACE2 TMPRSS2, 50uM",4.585 pmol(total) and 3.749 pmol(total)
same,"Intracellular amount, avg","HeLa-ACE2-TMPRSS2 cells; Hela ACE2 TMPRSS2, 100uM",8.85 pmol(total)
same,"Intracellular amount, individual","HeLa-ACE2-TMPRSS2 cells; Hela ACE2 TMPRSS2, 100uM",8.312 pmol(total) and 9.388 pmol(total)
